Assays:
[1] = Diuretic activity in rat (DA200, dosage causing doubling of the urinary volume), method of Fregnan et al.; type: in vivo; details: po, os
Description: The diuretic activity has been determined according to the method by G. B. Fregnan et al., Gazzetta Medica Italiana 128, 384 (1969).
In the Table given hereinbelow the pharmacological data of some of the compounds according to the invention in comparison with thienyl acid are set forth.
*Dosage causing doubling of the urinary volume

[2] = Acute toxicity in rat (DL50); details: in vivo, ip

Row | SMILES | ED (doubling of urinary volume) [1] | LD50 [2]
1 | Nc1nc(-c2ccc(Cl)cc2)c(CCO)s1 [LR 409, 2-[2-amino-4-(p-chlorophenyl)thiazole-5-yl]ethanol] | 30 mg/kg | 280 mg/kg
2 | CCN(CC)c1nc(-c2ccc(Cl)cc2)c(CCOC(N)=O)s1 [LR 525, 2-[2-diethylamino-4-(p-chlorophenyl)thiazole-5-yl]ethanol carbamate] | 3 mg/kg | > 2000 mg/kg
3 | NC(=O)NC(=O)OCCc1sc(N)nc1-c1ccc(Cl)cc1 [LR 856] | 5 mg/kg | > 1000 mg/kg
4 | CNc1nc(-c2ccc(Cl)cc2)c(CCO)s1 [LR 861, 2-[2-methylamino-4-(p-chlorophenyl)thiazole-5-yl]ethanol] | 100 mg/kg | 750 mg/kg
5 | NC(=O)OCCc1sc(N)nc1-c1ccc(Cl)cc1 [LR 890, 2-[2-amino-4-(p-chlorophenyl)thiazole-5-yl]ethanol carbamate] | 3 mg/kg | > 2000 mg/kg
6 | CCN(CC)c1nc(-c2ccc(Cl)cc2)c(CCO)s1 [LR 440, 2-[2-diethylamino-4-(p-chlorophenyl)thiazole-5-yl]ethanol] | 100 mg/kg | > 1000 mg/kg
7 | CNc1nc(-c2ccc(Cl)cc2)c(CCOC(N)=O)s1 [LR 892, 2-[2-methylamino-4-(p-chlorophenyl)thiazole-5-yl]ethanol carbamate] | 10 mg/kg | > 1000 mg/kg
8 | O=C(O)COc1ccc(C(=O)c2cccs2)c(Cl)c1Cl [Thienyl acid, reference compound] | 100 mg/kg | 350 mg/kg

— patent US4761422A, “(2-amino-4-aryl-thiazole-5-yl)ethanols and their derivatives having diuretic activity and methods for preparing the same” (Lusofarmaco Istituto Lusofarmaco d'Italia SpA, priority 1986, dated 1988)
